From patent US9850221B2, “Sulfated and unsulfated flavonoid oligomers as cancer therapeutics” (VIRGINIA COMMONWEALTH UNIVERSITY, priority 2013, dated 2017)

Columns and labels:
Format in all cases: cell-based, human
[1] = test system: self-renewal factors OCT4, BMI-1, c-MYC; assay: Western blot of self-renewal factors in spheroids; details: 100 μM, HT-29
Protocol: (§1) Western Blotting Analysis. Western blot analysis was performed according to the standard protocol described in the literature. Briefly, HT-29 cells were plated in serum-free SCM in a low adhesion 6-well plate to obtain spheroids. Mature spheroids were treated on day 4 after plating, with vehicle or NSGMs for indicated time and cells were solubilized in lysis buffer (20 mM Na3PO4, 100 mM NaCl, 2 mM EDTA, 1% Nonidet P-40, 2.5 mM Na3VO4) containing protease (Roche) as well as phosphatase inhibitor cocktails (Sigma). Following centrifugation at 14,000 g for 15 min, the supernatant was used for Western blot analysis. In all analyses, protein concentration was determined by the Bio-Rad Protein Assay kit (Bio-Rad). Approximately 25-50 μg of protein was separated by polyacrylamide gel electrophoresis and was transferred to PVDF membrane (Bio-Rad). Blocking was done with 5% low fat milk powder for 1 hr followed by overnight incubation with primary antibody (dilution 1:1000): anti-CD44 (Cell Signaling), anti-EpCAM (Cell Signaling), anti-LGR5 (Origene), anti-CD133 ((Miltenyi Biotec), anti-CXCR4 (Abeam), anti-OCT4 (Cell Signaling), anti-BMI-1 (Millipore), anti-c-MYC (Millipore) and anti-CK20 (Abeam). This was followed by incubation with appropriate secondary antibody and protein bands were visualized using the enhanced chemiluminescence detection system and imaged with LAS-3000 Imaging System (FUJIFILM). Densitometry was determined by AIDA image analyzer software (Raytest) and results were calculated as relative intensity compared to control. All experiments were performed at least three times.

[2] = test system: CSC markers CD44, CD133, EpCAM, LGR5, CXCR-4; assay: Western blot of CSC markers in HT-29 spheroids; details: HT-29 spheroids, 100 μM, Western blot densitometry vs vehicle
Protocol: as §1

[3] = test system: HCT-116 cells, grown in spheroid condition; assay: Apoptosis assay (annexin V/propidium iodide and acridine orange/ethidium bromide); details: annexin V labeling and acridine orange/ethidium bromide staining, 100 μM, 24 hours, vs vehicle
Protocol: Apoptosis Assay. Human colon cancer HCT-116 cells, grown in spheroid condition were treated with vehicle or NSGMs for 24 hours. Following which cells were trypsinized and single cells were re-suspended at 10^6 cells/mL in PBS buffer. Two different methods were used to assess apoptosis induction. In the first methods, cells were incubated with propidium iodide and Annexin V-APC (ebioscience) and flow cytometric analyses were performed as above. […] Briefly, a small volume of cell suspension was mounted on a glass slide and incubated with 1 μl of AO/EB solution and mixed gently just prior to microscopy and quantification. At least 500 cells in 10-15 fields were examined in each sample using Nikon ECLIPSE E800M fluorescence microscope using 20× objective. […] The data was expressed as apoptosis index=[([apoptotic cells (NSGMs)/total cells (NSGMs)]/[apoptotic cells (vehicle)/total cells (vehicle)]).

HT-29 cells = assay: Primary (1°) colonosphere formation assay, HT-29 (Screen 1); details: 100 μM
Protocol: Primary (1°) Colonosphere Formation Assay. For primary sphere formation, cells were plated in non-treated, low adhesion, 96 wells plate at the concentration of 100 cells/100 μL/well in stem cell media (SCM) that consisted of DMEM:F12:AA (Gibco), supplemented with 1×B27 (Gibco), 20 ng/mL epidermal growth factor and 10 ng/mL fibroblast growth factor (Sigma). After four hour of incubation, vehicle (control) or NSGM at the desired concentrations were added to each well (at least in triplicates for each sample). On day five, numbers of spheres ranging from […] in diameter were counted using phase contrast microscope and percent inhibition was calculated compared to control.
In this screen, sulfated NSGMs that inhibit HT-29 growth under spheroid conditions, but not under monolayer conditions, were then assessed for retention of 2° and 3° spheroid growth inhibition profiles in the absence of NSGM. The latter screen is of particular importance as primary spheroid growth although selective for CSCs doses not distinguish between non self-renewing progenitors and self-renewing CSCs. […] These 11 NSGMs belonged to G2, G4, G11 and G12 scaffolds but only four of the six G2 molecules, one of the two G4, four of the seven G11 and two of the five G12 molecules satisfied the first screen.

LGR5 = assay: Flow cytometry analysis of CSC markers in HT-29 spheroids; details: 100 μM, vs vehicle-treated controls
Protocol: Flow Cytometry Analysis. Human colon cancer HT-29 cells, grown in spheroid or monolayer condition were treated with vehicle or NSGMs for 24 hours, were trypsinized and single cells were re-suspended at 10^6 cells/mL in PBS buffer. Cells were incubated with fluorophore conjugated antibody for 30 minutes at 4° C. and washed once with PBS buffer prior to analysis. Following antibody and dilution were used: LGR5-PE) (Dilution 1:50, Origene), DCLK1 (Dilution 1:33, Abeam). Cell sorting was performed using FACSAria™ II High-Speed Cell Sorter (BD Biosciences) and data were analyzed with FCS Express 4 Flow Cytometry software (De-Novo Software).

O=c1cc(-c2ccc(OS(=O)(=O)O)c(OS(=O)(=O)O)c2)oc2cc(OS(=O)(=O)O)cc(OS(=O)(=O)O)c12 [G1.4]
BMI-1 expression [1]: no such changes | c-MYC expression [1]: no such changes | reduction of expression of CSC markers (CD44, CD133, EpCAM, LGR5, CXCR-4) [2]: no effect | induction of apoptosis in spheroid cells [3]: no such effects | Screen 1 outcome (spheroid versus monolayer growth inhibition) (HT-29 cells): completely failed | reduction in LGR5 (hi) cells (LGR5): < 15%
